Data on eight molecules can be found in patent US20020037885A1, “Therapeutic compounds” (priority 1999, published 2002).

Data set [1] deals with marble burying behaviour in mice. Nature of the data set: Mouse Marble Burying Assay (BUR). It counts as in vivo. Particulars: Mus musculus, sc. The protocol: This assay was carried out essentially according to the procedure described by Treit et al. (1981) Pharmacol Biochem Behav; 15; 619-626.
The results are presented as BUR ED50 (sc). This is the effective dose causing 50% inhibition of burying compared to control mice.

Data set [2] concerns hyperpolarisation-activated inward cation current Ih in dorsal root ganglion (DRG) cells. Nature of the data set: Inhibition of hyperpolarisation-activated cation current (Ih), whole cell voltage clamp on cultured DRG cells. It counts as cell-based. Particulars: (-) log concentration at which Ih activation rate constant kact is reduced by 50%; mean; rat DRG cells. The protocol:
A) determining the potency of compounds to inhibit the hyperpolarisation-activated inward cation current Ih in dorsal root ganglion (DRG) cells of the rat; the effect is measured as the decrease in Ih activation rate and is expressed as the half maximal effect concentration (IC50) or the negative logarithm of this IC50 (known as pIC50).
To obtain E15 DRGs, pregnant Wistar rats were sacrificed. Embryos were removed and spinal cords with DRG attached to both sides were dissected out and collected in Hanks balanced salt solution (HBSS; Gibco). DRG were separated from the spinal cord and pooled in HBSS without Ca^2+ and Mg^2+. Dissociation of intact DRG was started by incubation with a 0.25% trypsin solution for 30 min at 37° C. Trypsination was stopped by diluting the enzyme and centrifugation (1 min; 2500 rpm). After aspiration of the supernatant the tissue pellet was triturated with DMEMF10 (DMEM supplemented with 10% fetal bovine serum (Hyclone), 6 g/l glucose and 2 mM I-glutamine) and centrifuged for 10 min at 1700 rpm. Dissociated DRG cells were resuspended in culture medium (DMEMF10 with 50 ng/ml NGF 2.5S (Alomone labs)), counted and plated out in a density of 1-2.105 cells on collagen (50 μg/ml) and/or poly-l-lysine (10-20 μg/ml) coated glass coverslips in 24-well tissue culture plates. Plates were kept in a humidified incubator at 37° C. and 5% CO2 for 72 hrs. Glial cell proliferation was inhibited when necessary by adding cytosine arabinoside (Ara-c) at a concentration of 5.10^−7 M. After 3 days fresh culture medium was administered. Medium was subsequently changed every […].
DRG cells were sampled with the whole cell voltage clamp method. Glass electrodes were pulled from thick-walled borosilicate capillaries with filament (1 mm outer diameter). Pipette resistance was 2-5 MΩ. Series resistance (5-15 MΩ) was compensated for to ensure so that potential errors made in the determination of the actual membrane potential were less then 2 mV. Cell capacitance (10-75 pF) compensation was used to compensate for capacitive currents. The extracellular solution contained (in mM): NaCl 140; KCl 5; CaCl2 2; MgCl2 1; D(+) glucose 5.6;HEPES 5; Sucrose 30; pH=7.4. The pipette solution contained (in mM): K-gluconate 119; NaCl 5; KCl 13; CsCl 2; CaCl2 1; EGTA 10;HEPES 10; pH=7.2. Cells were preincubated for more then 1½ hours with different concentrations (1E-9 to 1E-4 M) of test compound dissolved in extracellular solution at room temperature (20° C.) in normal air. Larger cells that appeared round with a pronounced halo under phase-contrast microscopy were selected because almost all of them expressed Ih. Data were acquired with a Digidata 1200® analogue to digital interface using PCLAMP® software (both from Axon Instruments). For Ih activation the cell was held at −63 mV and stepped to −123mV (potentials after correction for liquid junction potential). Current traces were selected for soundness, averaged and fitted to a first order exponential using PCLAMP® software (fit between 60 and 950 ms to avoid biasing by transient currents). Activation time constants (τ) for Ih under different drug concentrations were derived from this fit. The activation rate constant for Ih is defined as kact=1/τ.
The pIC50 is the (-) log concentration of a compound at which the Ih activation rate constant kact is reduced by 50%. pIC50 for a compound could be estimated adequately by fitting kact to the logarithm of the concentration with a logistic function using PRISM® software (Graphpad Inc.). The function chosen is:
kact=A/(1+10^ (log([compound])+pIC50)); A is kact [compound]=0M.
Averaging all control measurements yields that A=3.52 s^−1 and the maximum kact was forced to this value for all compounds in this study. The Hill slope that normally is estimated in concentration-effect relations appeared to be about 1 and was subsequently fixed to this value. […]

A further data set has as its system Ih channel. Particulars: cited from earlier work.
The test system of data set [3] is REM sleep in male Wistar rats. Nature of the data set: Rat Sleep Analysis: suppression of REM sleep. It counts as in vivo. To be noted: first 3 hours after drug administration. The procedure: Suppression of REM sleep in male Wistar rats was measured after treatment with compounds according to the invention or reference antidepressants using the methods described by Ruigt et al.(Electroencephalography and clinic Neurophysiology, 1989, 73, pages 52-63 & 64-71)
The values reported in Table 1 are expressed as percentage change over placebo for the amount of REM sleep in the first 3 hours after drug administration.

In data set [4] the test system is hyperpolarisation-activated inward cation current Ih in dorsal root ganglion (DRG) cells. Nature of the data set: Inhibition of hyperpolarisation-activated cation current (Ih), whole cell voltage clamp on cultured DRG cells. It counts as cell-based, rat. To be noted: at 1E-5 M.
Where [5] appears, read: effective dose causing 50% inhibition of burying compared to control mice, read-out: BUR ED50 (SC).

Read-outs that look alike come from different tables or passages of the source.

Regarding `C=CC[C@H](N)c1ccccc1-c1noc2cc(F)ccc12.O=C(O)/C=C/C(=O)O` [13(1), (S)-(−)-2-(6-fluoro-1,2-benzisoxazol-3-yl)-α-2-propenyl-benzenemethanamine (E)-butenedioate], the melting point (as a rule, the temperature of the solid-liquid transition) lay within 146 to 149 °C. In data set [1] (setting [5]), the ED50 (usually the dose that gives a 50% effect, or the effect in half of the subjects) amounted to 1 mg/kg. The molecule further showed a pIC50-Ih in data set [2] of 6.13.

`CCN(c1ccccc1)c1cc(NC)[n+](C)c(C)n1` [ZD7288, 4-(N-ethyl-N-phenylamino)-1,2-dimethyl-6-(methyiamino)-pyrimidinium-chloride]: the IC50 (usually the concentration that inhibits the measured activity by half) in the data set on Ih channel (Harris and Constanti 1995, read-out: IC50 for blocking Ih) was 2000 nM.

Consider `C=CC[C@H](N)c1ccccc1-c1noc2ccccc12.Cl` [Example 13, (S)-2-(1,2-Benzisoxazol-3-yl)-α-2-propenyl-benzenemethanamine Hydrochloride], for which the melting point was 191 °C. Moreover, in data set [1] (setting [5]), the ED50 came to 0.39 mg/kg. The pIC50-Ih in data set [2] is 6.48. Further, the “percentage change over placebo for the amount of REM sleep” value (“percentage change over placebo” below) in data set [3] (dose 0.1 mg/kg IP) was −17%. In data set [3] (dose 0.32 mg/kg IP), the “percentage change over placebo” value is given as −26%. For the same molecule, the “percentage change over placebo” value in data set [3] (dose 1 mg/kg IP) is given as −100%.

Regarding `C=CCC(N)c1ccccc1-c1noc2cc(Cl)ccc12.Cl` (stereo not drawn) [11(2), 2-(6-chloro-1,2-benzisoxazol-3-yl)-α-2-propenyl-benzenemethanamine hydrochloride], the melting point lay in the range of 174 to 185 °C. In data set [1] (setting [5]), the 50% effective dose (ED50) was 0.7 mg/kg. In data set [2], this molecule came in with a pIC50-Ih of 6.44.

On to `[Cs]` [caesium], for which the “concentration blocking Ih” value in the data set on Ih channel (Pape 1996) is 1 to 5 mM.

On to `[Ba]` [barium], for which the “block of the Ih channel” value in the data set with Ih channel (1 mM barium (Ba2+)) is on record as “not blocked”.

`C=CCC(N)c1ccccc1-c1noc2ncccc12.O=C(O)/C=C\C(=O)O` (stereo not drawn) [16 (5), 2-(isoxazolo[5,4-b]pyridin-3-yl)-α-2-propenyl-benzenemethanamine (Z)-butenedioate]: the melting point is 187 to 188 °C (dec.). Also, the “Ih amplitude, inhibition” value in data set [4] is recorded as 90% inhibition at 1E-5. The ED50 in data set [1] (Table 3, read-out: BUR s.c. ED50) was 1.7 mg/kg.

For `C=CC[C@H](N)c1cc(F)ccc1-c1noc2ccccc12.O=C(O)/C=C/C(=O)O` [Example 13(3), (S)-(−)-2-(1,2-benzisoxazol-3-yl)-5-fluoro-α-2-propenyl-benzenemethanamine (E)-butenedioate], the melting point fell in the range of 174 to 176 °C. Moreover, in data set [2], the pIC50-Ih stood at 5.98.
